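Test compounds were applied to cells in 96-well plates for 48 hours at 5 doses. GI50 marks 50% less growth. The concentration for full growth arrest is given as TGI.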
Key:
Test in all cases: DTP human tumour cell line panel, 48 h
NCI-H226 lung = test system: NCI-H226 lung
SNB-19 CNS = test system: SNB-19 CNS
CCRF-CEM leukemia = test system: CCRF-CEM leukemia
OVCAR-5 ovarian = test system: OVCAR-5 ovarian
M14 melanoma = test system: M14 melanoma
ACHN renal = test system: ACHN renal
SK-MEL-28 melanoma = test system: SK-MEL-28 melanoma
OVCAR-8 ovarian = test system: OVCAR-8 ovarian
K-562 leukemia = test system: K-562 leukemia
HS 578T breast = test system: HS 578T breast

Structure (SMILES) | TGI (NCI-H226 lung) [µM] | TGI (SNB-19 CNS) [µM] | TGI (CCRF-CEM leukemia) [µM] | TGI (OVCAR-5 ovarian) [µM] | TGI (M14 melanoma) [µM] | TGI (ACHN renal) [µM] | TGI (SK-MEL-28 melanoma) [µM] | TGI (OVCAR-8 ovarian) [µM] | TGI (K-562 leukemia) [µM] | GI50 (NCI-H226 lung) [µM] | GI50 (SNB-19 CNS) [µM] | GI50 (CCRF-CEM leukemia) [µM] | GI50 (OVCAR-5 ovarian) [µM] | GI50 (M14 melanoma) [µM] | GI50 (ACHN renal) [µM] | GI50 (SK-MEL-28 melanoma) [µM] | GI50 (OVCAR-8 ovarian) [µM] | GI50 (K-562 leukemia) [µM] | GI50 (HS 578T breast) [µM] | TGI (HS 578T breast) [µM]
O=C1C[C@@H]2C(COC(=O)c3ccccc3)N(OCc3ccccc3)C[C@@H]2O1 (stereo partly drawn) | > 100 | > 100 | > 100 | > 100 | > 100 | > 100 | > 100 | > 100 | > 100 |  |  |  |  |  |  |  |  |  |  | 
NC(=O)N/N=C/C(/C=N/NC(N)=O)[N+](=O)[O-] | > 100 | > 100 | > 100 | > 100 | > 100 | > 100 | > 100 |  | > 100 |  |  |  |  |  |  |  |  |  |  | 
CC(=O)OCCOCNC(=S)N/N=C(\C)c1cnc2ccccc2n1 | > 100 | > 100 | 90.2 | 61.3 | > 100 | > 100 | > 100 | > 100 | > 100 |  |  |  |  |  |  |  |  |  |  | 
CO/C1=C\C(C)=C\C(C)C(O)C(C)C/C(C)=C/C=C/C(OC)C(C(C)C(O)C(C)C2(O)CC(O)C(C)C(C(C)C)O2)OC1=O (stereo not drawn) |  | 24.9 |  |  | 0.00127 | 13.2 | 23.5 | 10.4 | 13.7 |  |  |  |  |  |  |  |  |  |  | 
CCNC(=O)C#CC(=O)NCC | > 100 | > 100 | > 72.3 | > 100 | > 100 | > 100 | > 100 | > 100 | > 70.2 | > 100 | > 10 | > 10 | > 10 | > 10 | > 10 | > 100 | > 10 | > 10 |  | 
Cc1nc2c(n1C(C)(C)C)C(=O)c1ccccc1C2=O | > 100 | > 100 | > 100 |  | > 100 | > 100 | > 100 | > 100 | > 100 |  |  |  |  |  |  |  |  |  |  | 
N#Cc1cnc2cc(OC[C@@H](O)CO)c(NC(=O)CC3CSSC3)cc2c1Nc1ccc(OCc2cccc(F)c2)c(Cl)c1 |  | 1.18 | 0.16 | 1.59 | 0.175 | 2.87 | 0.136 | 1.85 | 0.207 |  | 0.381 | 0.0603 | 0.797 | 0.0828 | 1.1 | 0.0632 | 0.651 | 0.0945 | 0.105 | 0.282
COc1ccccc1-c1cc(=O)c2ccccc2[nH]1 | > 100 | > 100 | > 100 |  | > 100 | > 100 | > 100 | > 100 | > 100 |  |  |  |  |  |  |  |  |  |  | 
C[C@]1(CO)[C@H]2CC[C@@]34C=C[C@@](CO)(CC[C@H]3[C@]2(C)CC[C@H]1O)C4 | > 100 | > 100 | > 100 | > 100 | > 100 | > 100 | > 100 | > 100 |  |  |  |  |  |  |  |  |  |  |  | > 100
CC(C)(C)NCc1cc(C(C)(C)C)cc(-c2ccc(Cl)cc2)c1O |  | 30.5 |  | 28.2 | 28.8 | 26.7 | 28.2 |  |  |  |  |  |  |  |  |  |  |  |  | 29
O=C(Nc1ccc(Cl)cc1)c1ccc(NC2=C(Cl)C(=O)N(Cc3ccccc3)C2=O)cc1 | 28.4 | 76.6 |  | 28.1 | 35.8 | 35.3 | 37.9 | 28.1 | 48.9 | 11.2 | 23.2 |  | 14.1 | 15.2 | 15.7 | 17.4 | 7.92 | 3.29 | 18.4 | 49.8
ClC(Cl)c1nc(-c2cccnc2)n2nc(-c3ccccc3)cc2n1 |  | 5.89 | > 100 | 5.43 | 2.79 | 4.94 | 3.51 |  | > 100 |  | 1.88 | 2.32 | 1.9 | 1.14 | 1.37 | 1.71 |  | 1.33 | 2.5 | 6.05
NC(=O)c1cc(Br)cc(C2CCCCC2)c1O | 31 | 27.9 | 39.8 | 27.8 | 25.6 | 25.5 | 27.3 | 30 | 34.5 | 13.6 | 13.8 | 15.1 | 13.9 | 12.8 | 12.9 | 14 | 14.4 | 14.4 |  | 
COc1cccc(NC(=O)CC(=O)N2N=C(N(CCC#N)c3ccccc3C)CC2c2ccccc2)c1 (stereo not drawn) | > 100 | > 100 | > 100 | > 100 | > 100 | > 100 | > 100 | > 100 | > 100 |  |  |  |  |  |  |  |  |  |  | 
O=C(Nc1nc2ccccc2n1Cc1ccccc1)NC12CC3CC(CC(C3)C1)C2 | > 100 | > 100 | > 100 | > 100 | > 100 | > 100 | > 100 | > 100 | > 100 |  |  |  |  |  |  |  |  |  |  | 
CN1NC2(CCCCC2)ON=C1c1ccccc1 | > 100 | > 100 | > 100 | > 100 | > 100 | > 100 | > 100 | > 100 | > 100 |  |  |  |  |  |  |  |  |  |  | 
O=C(O)CCCCCOc1cccnc1/C=N/NC1=NCCN1 | > 100 | > 100 | > 100 | > 100 | > 100 | > 100 | > 100 | > 100 | > 100 |  |  |  |  |  |  |  |  |  |  | 
COc1ccc2c(c1OC)C1=C(C2=O)c2cc3c(cc2CCN1)OCO3 | 9.58 |  | > 100 | 97.4 | > 100 | > 100 | > 100 | > 100 | 87.8 |  |  |  |  |  |  |  |  |  |  | 
CCC(=O)C(C)C1=Nc2nnc(CCCCCCCc3nnc4n3C(=O)C(C(C)C(=O)CC)=N4)n2C1=O (stereo not drawn) | > 100 | > 100 | > 100 | > 100 | > 100 | > 100 | > 100 | > 100 | > 100 |  |  |  |  |  |  |  |  |  |  | 
CN(C)N1C(=O)c2ccccc2NC1c1ccccc1 (stereo not drawn) | > 100 | > 100 | > 100 | > 100 | > 100 | > 100 | > 100 | > 100 |  |  |  |  |  |  |  |  |  |  |  | > 100
